Peptide text beside a SMILES is read from it.
What was measured:
[1] = system: human peripheral blood mononuclear cells (MCP-1); test: MCP-1 chemokine production by ELISA; format: cell-based; settings: 24 hours of stimulation; lowest peptide concentration 20 μg/ml
Procedure: FIG. 19. High production of anti-infective chemokine MCP-1 by human peripheral blood mononuclear cells treated with peptides, as determined by ELISA after 24 hours of stimulation.
Venous blood (20 ml) from healthy volunteers was collected in Vacutainer® collection tubes containing sodium heparin as an anticoagulant (Becton Dickinson, Mississauga, ON) in accordance with UBC ethical approval and guidelines. Blood was diluted 1:1 with complete RPMI 1640 medium and separated by centrifugation over a Ficoll-Paque® Plus (Amersham Biosciences, Piscataway, N.J., USA) density gradient. White blood cells were isolated from the buffy coat, washed twice in RPMI 1640 complete medium, and the number of peripheral blood mononuclear cells (PBMC) was determined by Trypan blue exclusion. PBMC (5×10^5) were seeded into 12-well tissue culture dishes (Falcon; Becton Dickinson) at 0.75 to 1×10^6 cells/ml at 37° C. in 5% CO2. The above conditions were chosen to mimic conditions for circulating blood monocytes entering tissues at the site of infection via extravasation.
Following incubation of the cells under various treatment regimens, the tissue culture supernatants were centrifuged at 1000×g for 5 min, then at 10,000×g for 2 min to obtain cell-free samples. Supernatants were aliquoted and then stored at −20° C. prior to assay for various chemokines by capture ELISA (eBioscience and BioSource International Inc., CA, USA respectively)

[2] = system: human PBMC (TNFα); test: LPS-induced TNFα production by ELISA; format: cell-based; settings: P. aeruginosa LPS, 24 hr
Procedure: FIG. 20. Ability of peptides to knockdown pro-inflammatory cytokine TNFα production by human PBMCs in response to bacterial LPS treatment as determined by ELISA after 24 hours.
LPS from P. aeruginosa strain H103 was highly purified free of proteins and lipids using the Darveau-Hancock method. Briefly, P. aeruginosa was grown overnight in LB broth at 37° C. Cells were collected and washed and the isolated LPS pellets were extracted with a 2:1 chloroform:methanol solution to remove contaminating lipids. Purified LPS samples were quantitated using an assay for the specific sugar 2-keto-3-deoxyoctosonic acid (KDO assay) and then resuspended in endotoxin-free water (Sigma-Aldrich).
Human PBMC were obtained as described above and treated with P. aeruginosa LPS (10 or 100 ng/ml) with or without peptides for 24 hr after which supernatants were collected and TNFα assessed by ELISA.

[3] = system: human PBMC (MCP-1); test: synergy with poly(I:C) to increase MCP-1 production; format: cell-based; settings: 10 μg/ml peptide with 20 μg/ml poly(I:C)
Procedure: FIG. 21. Ability of 10 μg/ml of peptides in combination with 20 or 5 μg/ml of the known adjuvant poly inosine:cytosine [poly(I:C)] to synergize to increase MCP-1 production, a known adjuvant property [see Kindrachuk, J., H. Jenssen, M. Elliott, R. Townsend, A. Nijnik, S. F. Lee, V. Gerdts, L. A. Babiuk, S. A. Halperin and R. E. W. Hancock. 2009. A novel vaccine adjuvant comprised of a synthetic innate defence regulator peptide and CpG oligonucleotide links innate and adaptive immunity. Vaccine 27:4662-4671].
It is well accepted that vaccine immunization is best achieved by co-adminstration of an adjuvant. The precise mechanism by which these adjuvants work has eluded immunologists but appears to work in part by upregulating elements of innate immunity that smooth the transition to adaptive (antigen-specific) immunity (Bendelac A and R. Medzhitov. 2002. Adjuvants of immunity: Harnessing innate immunity to promote adaptive immunity J. Exp. Med. 195:F19-F23). Within this concept there are several possible avenues by which adjuvants might work including the attraction of immune cells into the site at which a particular antigen is injected, through e.g. upregulation of chemokines, the appropriate activation of cells when they reach that site, which can be caused by local cell or tissue damage releasing endogenous adjuvants or through specific cell activation by the adjuvants, and the compartmentalization of immune responses to the site of immunization (the so-called “depot” effect). […] 2010. Immunomodulators as adjuvants for vaccines and antimicrobial therapy. Ann. NY Acad. Sci. 1213:46-61].

[4] = system: Pseudomonas aeruginosa PA14 and PAO1 and Burkholderia cenocepacia; test: swarming and surfing motility; format: cell-based
Excerpt: Motility is strongly involved in the virulence of bacteria since it plays an important role in the attachment of bacteria to surfaces, including those in the body and on indwelling medical devices, and in colonization of these surfaces and biofilm formation. P. aeruginosa is known to utilize at least 4 different types of motility: (a) flagellum-mediated swimming in aqueous environments and at low agar concentrations (<0.3% agar), (b) type IV pilus-mediated twitching on solid surfaces or interfaces, (c) swarming on semi-solid media (0.5-0.7% agar) in poor nitrogen (N) sources such as amino acids (AA) and (d) surfing on low agar concentrations containing mucin.
Swarming motility is a social phenomenon (a complex adaptation) involving the coordinated and rapid movement of bacteria across a semi-solid (viscous) surface, and is widespread among flagellated pathogenic bacteria. […]
This was independent of bacterial killing (antimicrobial peptide action measured by MIC) since these peptides were able to inhibit the swarming of Burkholderia cenocepacia, which as mentioned above is completely resistant to all cationic antimicrobial peptides due to its altered outer membrane.

[5] = system: Pseudomonas aeruginosa (Pa) biofilm; test: static abiotic solid surface (microtiter, crystal violet) / Bioflux biofilm inhibition screen; format: cell-based; settings: peptide 10 μg/ml
Procedure: FIG. 1. Identification of new anti-biofilm peptides active against P. aeruginosa using the microtiter plate screening method with crystal violet staining. […] As a control peptide 1037 was utilized [de la Fuente Nunez et al. 2011].
(§1) Methods of assessment of anti-biofilm activity—Biofilm formation was initially analyzed using a static abiotic solid surface assay as described elsewhere (de la Fuente-Nunez et al., 2012). Dilutions (1/100) of overnight cultures were incubated in BM2 biofilm-adjusted medium [62 mM potassium phosphate buffer (pH 7), 7 mM (NH4)2SO4, 2 mM MgSO4, 10 μM FeSO4, 0.4% (wt/vol) glucose, 0.5% (wt/vol) Casamino Acids], or a nutrient medium such as Luria Broth, in polypropylene microtiter plates (Falcon, United States) in the absence (control) or presence of peptide. Peptide was added at time zero (prior to adding the diluted, overnight cultures) in varying concentrations, and the decrease in biofilm formation was recorded at 22-46 h for most bacteria. Planktonic cells were removed, biofilm cells adhering to the side of the tubes were stained with crystal violet, and absorbance at 595 nm was measured using a microtiter plate reader (Bio-Tek Instruments Inc., United States). Some peptides were screened against two Gram negative organisms, P. aeruginosa and K. pneumoniae using a Bioflux apparatus (AutoMate Scientific, Berkeley, Calif.; http://www.autom8.com/bioflux_biofilm.html), which allows for the high-throughput, real-time analysis of biofilms.

[6] = system: Klebsiella pneumoniae (Kp) biofilm; format: cell-based; settings: peptide 10 μg/ml
Procedure: as §1

[7] = system: P. aeruginosa biofilms; settings: biofilms
Procedure: Peptides and various conventional antibiotics were analyzed by checkerboard titration into microtiter trays using CLSI methods (Wiegand, I., K. Hilpert, and R. E. W. Hancock. 2008. Nature Protocols 3:163-175), bacteria added and, after overnight incubation at 37° C., the residual biofilm assessed by the crystal violet method mentioned in the body of the grant, with an A595 of 0.2 considered as 100% biofilm inhibition. The effects of the peptide in reducing the minimal biofilm inhibitory concentration (MBIC) of the antibiotic and vice versa were assessed using the Fractional Inhibitory Concentration (FIC) method whereby ΣFTC=FICA+FICB=(CA/MICA)+(CB/MICB), where MBICA and MBICB are the MBICs of peptide A and antibiotic B alone, respectively, and CA and CB (expressed in μg/ml) are the MICs of the drugs in combination. This conventional clinical microbiology assay is interpreted as follows

## CC[C@H](C)[C@H](NC(=O)[C@H](CC(C)C)NC(=O)[C@H](CCCNC(=N)N)NC(=O)[C@@H](N)C(C)C)C(=O)N[C@@H](Cc1c[nH]c2ccccc12)C(=O)N[C@@H](C)C(=O)N[C@H](C(=O)N[C@@H](CCCNC(=N)N)C(=O)N[C@H](C(=O)N[C@@H](Cc1c[nH]c2ccccc12)C(=O)N[C@@H](CCCNC(=N)N)C(=O)N[C@@H](CCCNC(=N)N)C(N)=O)[C@@H](C)CC)C(C)C [HE4] (H-VRLIWAVRIWRR-NH2; N-terminus assumed)
[1]
  MCP-1 induction: clearly superior to peptide 1018
[2]
  suppression of LPS-induced TNFα: strongly suppressed
[3]
  synergy with poly(I:C) in MCP-1 production: showed synergy

## polymyxin B
[4]; low concentrations
  swarming motility: does not have anti-swarming or anti-surfing activity
[4]; mucin-containing plates
  surfing motility: does not have anti-swarming or anti-surfing activity

## CC[C@H](C)[C@H](NC(=O)[C@@H](NC(=O)[C@H](CCCNC(=N)N)NC(=O)[C@H](C)NC(=O)[C@@H](NC(=O)[C@H](CCCNC(=N)N)NC(=O)[C@H](CCCCN)NC(=O)[C@H](Cc1ccccc1)NC(=O)[C@@H](N)CCCNC(=N)N)C(C)C)C(C)C)C(=O)N[C@@H](Cc1c[nH]c2ccccc12)C(N)=O [HE12] (H-RFKRVARVIW-NH2; N-terminus assumed)
[1]
  MCP-1 induction: clearly superior to peptide 1018
[2]
  suppression of LPS-induced TNFα: strongly suppressed
[3]
  synergy with poly(I:C) in MCP-1 production: showed synergy

## CC[C@@H](C)[C@@H](NC(=O)[C@@H](C)NC(=O)[C@@H](CCCNC(=N)N)NC(=O)[C@@H](Cc1c[nH]c2ccccc12)NC(=O)[C@@H](CCC(N)=O)NC(=O)[C@H](N)C(C)C)C(=O)N[C@H](CCCNC(=N)N)C(=O)N[C@@H](C(=O)N[C@H](CCCNC(=N)N)C(=O)N[C@@H](C(=O)N[C@@H](C(=O)N[C@H](CCCNC(=N)N)C(N)=O)[C@H](C)CC)C(C)C)C(C)C [DJK5]
[5]
  % Biofilm Inhibition Pa: 99.7%
[6]
  % Biofilm Inhibition Kp: 99.8%
[7]
  MIC for complete inhibition of Pseudomonas aeruginosa: 1 µg/mL
  Minimal Biofilm Inhibitory Concentration (MBIC): 0.5 µg/mL

## CC[C@H](C)[C@H](N)C(=O)N[C@@H](CC(C)C)C(=O)N[C@@H](CCCNC(=N)N)C(=O)N[C@@H](Cc1c[nH]c2ccccc12)C(=O)N1CCC[C@H]1C(=O)N[C@@H](Cc1c[nH]c2ccccc12)C(=O)N1CCC[C@H]1C(=O)N[C@@H](Cc1c[nH]c2ccccc12)C(=O)N[C@@H](CCCNC(=N)N)C(=O)N[C@@H](CCCNC(=N)N)C(=O)N[C@@H](CCCCN)C(N)=O [MX226, reference compound] (H-ILRWPWPWRRK-NH2; N-terminus assumed)
[5]
  % Biofilm Inhibition Pa: 18%
[6]
  % Biofilm Inhibition Kp: 18%

## CC[C@H](C)[C@H](NC(=O)[C@H](CCCNC(=N)N)NC(=O)[C@@H](NC(=O)[C@@H](NC(=O)[C@H](CC(C)C)NC(=O)[C@H](CCCNC(=N)N)NC(=O)[C@@H](N)C(C)C)[C@@H](C)CC)C(C)C)C(=O)N[C@@H](Cc1c[nH]c2ccccc12)C(=O)N[C@@H](CCCNC(=N)N)C(=O)N[C@@H](CCCNC(=N)N)C(N)=O [HE10] (H-VRLIVRIWRR-NH2; N-terminus assumed)
[1]
  MCP-1 induction: clearly superior to peptide 1018
[2]
  suppression of LPS-induced TNFα: strongly suppressed
[3]
  synergy with poly(I:C) in MCP-1 production: showed synergy
